In US20090214637A1, “Novel Gene Therapy Approach For Treating The Metabolic Disorder Obesity” (NEUROLOGIX, INC., priority 2007, published 2009):

Key:
[1] = 2-DG induced food intake versus saline; type: in vivo, mice; details: over 4 h, compared to saline
Text: FIG. 8A-B depicts the effect of Hip2 silencing on the response to 2-deoxy-D-glucose (2-DG) induced hypoglycemia.
Silencing of Hip2 was achieved by AAV vectors encoding the Hip2 small hairpin RNA (Hip2 shRNA) delivered into the VMN region of the brain via injection. AAV vectors encoding the luciferase shRNA were used as controls. […] Furthermore, reduction of Hip2 levels also had no effect on the ability of the VMN neurons to sense glucose levels in blood.

[2] = system: primary VMN neurons; assay: Number of glucose sensing neurons after estradiol, calcium imaging; type: cell-based; details: 1 nM, 24 h, primary VMN neurons from female rats
Method: Overexpression of ERα in a murine hypothalamic cell line […] (FIG. 9A-C) has led to upregulation of glucose sensing genes. In order to determine whether these effects are also dependent on estrogen, primary VMN neurons from female rats were treated 17-β-estradiol at physiological levels (1 nM) and the number of glucose sensing neurons were measured in 24 h using calcium imaging.

[3] = system: dissociated VMN neurons; assay: Depolarization of dissociated VMN neurons by 17β-estradiol; type: cell-based, mice; details: 1 nM or 10 nM

## O=CC[C@@H](O)[C@H](O)[C@H](O)CO [2-DG, 2-deoxy-D-glucose]
[1]
  food intake: significantly increased food intake

## C[C@]12CC[C@@H]3c4ccc(O)cc4CC[C@H]3[C@@H]1CC[C@@H]2O [17β-estradiol]
[2]
  number of glucose-excited neurons: increased the number of glucose-excited neurons
[3]
  depolarization of cells with nuclear ERα staining: did not depolarize
[3]; dissociated VMN neurons from postnatal female mice
  depolarization of membrane ERα-immunoreactive cells: majority of membrane ERα-immunoreactive cells depolarized
